As a reminder, the IC50 is the concentration needed to halve the response being measured.

In patent US7638518B2, “Substituted pyrazole kinase inhibitors” (Janssen Pharmaceutica, priority 2006, dated 2009) one finds IC50 data, which are given here for ten compounds.

The target in one assay is T1, CDK1 (Homo sapiens, UniProt P06493).
T1 construct: purchased New England Biolabs, Beverly, Mass; 6020; host or cells: insect cells
The experiment in a line: CDK-1 kinase screening assay (33P-ATP FlashPlate). The class given is biochemical. To be noted: 10 μM ATP, biotinylated histone-H1 peptide substrate, 1 hr at 30° C. The method, then:
(§1) A kinase reaction mixture was prepared containing 50 mM Tris-HCl pH=8, 10 mM MgCl2, 0.1 mM […], 1 mM DTT, 10 μM ATP, 0.025 μM biotinylated histone-H1 peptide substrate and 0.2 μCuries per well ^33P-γ-ATP (2000-3000 Ci/mmol). 70 μL of the kinase reaction mixture was dispensed into the well of a streptavidin coated FlashPlate™ (Cat. # SMP103, NEN, Boston, Mass.).
(§2) Test compound stock in 100% DMSO (1 μL) was added to the wells resulting in a final concentration of 1% DMSO in the reaction with a 100 μL final reaction volume. Each enzyme was diluted in 50 mM Tris-HCl pH=8.0, 0.1% BSA and 30 μL was added to each well to initiate the reaction. The reaction was incubated for one hour at 30° C. At the end of the 1 hr incubation, the reaction was terminated by aspirating the mixture from the plate and washing the wells twice with PBS containing 100 mM EDTA. The biotinylated peptide substrate became immobilized on the Flashplate™ and the incorporation of ^33P-γ-ATP was measured by reading the plate on a scintillation counter. Inhibition of the enzymatic activity was measured by observing a reduced amount of ^33P-γ-ATP incorporated into the immobilized peptide.
The CDK1 enzyme was isolated from insect cells expressing both the human CDK1 catalytic subunit (Accession number NM_001786) and its positive regulatory subunit cyclin B (New England Biolabs, Beverly, Mass.; Cat. # 6020). The assay used 30 ng of the N-terminal biotinylated peptide biotin-[…]-amide (Cyclin dependent kinase 1) per well.
(§3) Aurora-A is a fusion protein containing a polyhistidine tag at the N terminus followed by the full length protein encoding the murine Aurora-A (Accession number GB BC014711) expressed and purified from sf9 insect cells. The assay used 400 ng of the N-terminal biotinylated peptide biotin-[…]-amide (Aurora-A) per well. A maximum and minimum signal for the assay was determined on each plate. The percent inhibition of a test compound was calculated according to the formula: […]
(§4) For a series of test concentrations, the IC50 was derived by graphing percent inhibition against the log of the concentrations tested for a given compound with results shown in Table 1.

For the next assay, the target named is T2, Aurora-A (Mus musculus, UniProt P97477).
T2 construct: followed by the full length protein encoding the murine Aurora-A; polyhistidine (N); made in house; host or cells: sf9 insect cells
T2 sequence (P97477 1-395): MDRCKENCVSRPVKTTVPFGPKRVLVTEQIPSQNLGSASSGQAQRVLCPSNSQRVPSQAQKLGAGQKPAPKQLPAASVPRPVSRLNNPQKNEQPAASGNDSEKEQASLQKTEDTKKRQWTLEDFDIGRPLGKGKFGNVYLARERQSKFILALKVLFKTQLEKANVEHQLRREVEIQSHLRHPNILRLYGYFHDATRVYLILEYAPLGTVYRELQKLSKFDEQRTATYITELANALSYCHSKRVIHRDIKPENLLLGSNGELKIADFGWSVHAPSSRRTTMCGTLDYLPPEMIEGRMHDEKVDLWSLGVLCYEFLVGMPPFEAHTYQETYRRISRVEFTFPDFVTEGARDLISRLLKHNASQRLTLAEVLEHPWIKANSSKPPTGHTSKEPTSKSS
The assay is described as follows: Aurora-A kinase screening assay (33P-ATP FlashPlate). In kind it is biochemical. To be noted: 10 μM ATP, murine full length Aurora-A, 1 hr at 30° C.

For the next assay, the system named is A375 malignant melanoma. The experiment in a line: Cell proliferation inhibition assay (14C-thymidine incorporation), A375. The class given is cell-based. Conditions: Homo sapiens, A-375, A375 cells. The text has this:
(§5) The ability of a test compound to inhibit unregulated cell proliferation may be determined by measuring incorporation of ^14C-labelled thymidine into newly synthesized DNA within cell lines derived from carcinomas originating from several tissues. Accordingly, the anti-proliferative effect of a compound on cells with a variety of phenotypes may be determined.
(§6) Carcinoma cell lines include those such as HeLa cervical adenocarcinoma (American Type Culture Collection (ATCC), Virginia, Cat. #CCL-2), A375 malignant melanoma (ATCC CRL-1619), and HCT-116 colon carcinoma (CCL-247).
(§7) The carcinoma cells are trypsinized and counted. The cells (3000-8000 count) are added to each well of a 96-well CytoStar tissue culture treated scintillating microplate (Amersham #RPNQ0160) in complete medium (100 μL) and the plate is then incubated in complete medium for 24 hrs at 37° C. in an inert atmosphere containing 5% CO2. Test compound (1 μL) in 100% DMSO is added to the plate test-wells with DMSO only added to control-wells. The plate is incubated in complete medium for a second 24 hr period at 37° C. in an atmosphere containing 5% CO2.
(§8) An aliquot of a solution of Methyl ^14C-thymidine (56 mC/mmol) (NEN #NEC568 or Amersham #CFA532) and complete medium (20 uL to provide 0.2 μCi/well) is then added to each well and the plate is incubated for a third 24 hr period at 37° C. in an atmosphere containing 5% CO2. The plate contents are then discarded, the plate is washed twice with PBS (200 μL) and then PBS (200 μL) is added to each well. The plate is sealed and the degree of methyl ^14C-thymidine incorporation is quantified on a Packard Top Count.
(§9) A maximum and minimum signal for the assay was determined on each plate. The percent inhibition of a test compound was calculated according to the formula: […]
(§10) For a series of test concentrations, the IC50 was derived by graphing percent inhibition against the log of the concentrations tested for a given compound with results shown in Table 3.
A general note: Incorporation of labelled thymidine or its analogues reports DNA synthesis.

In another assay the test system is HCT-116 colon carcinoma. The assay is described as follows: Cell proliferation inhibition assay (14C-thymidine incorporation), HCT-116. To be noted: Homo sapiens, HCT-116 cells. In kind it is cell-based.
Source text: as §5, §6, §7, §8, §9, §10

Assay [1] has as its system HeLa cervical adenocarcinoma. The assay is described as follows: Cell proliferation inhibition assay (14C-thymidine incorporation), HeLa. In kind it is cell-based. Conditions: Homo sapiens, HeLa cells.
Source text: as §5, §6, §7, §8, §9, §10

The next assay deals with T3, VEGFR2 (Rattus norvegicus, UniProt O08775).
T3 construct: polyhistidine (N)
T3 sequence (O08775 786-1343): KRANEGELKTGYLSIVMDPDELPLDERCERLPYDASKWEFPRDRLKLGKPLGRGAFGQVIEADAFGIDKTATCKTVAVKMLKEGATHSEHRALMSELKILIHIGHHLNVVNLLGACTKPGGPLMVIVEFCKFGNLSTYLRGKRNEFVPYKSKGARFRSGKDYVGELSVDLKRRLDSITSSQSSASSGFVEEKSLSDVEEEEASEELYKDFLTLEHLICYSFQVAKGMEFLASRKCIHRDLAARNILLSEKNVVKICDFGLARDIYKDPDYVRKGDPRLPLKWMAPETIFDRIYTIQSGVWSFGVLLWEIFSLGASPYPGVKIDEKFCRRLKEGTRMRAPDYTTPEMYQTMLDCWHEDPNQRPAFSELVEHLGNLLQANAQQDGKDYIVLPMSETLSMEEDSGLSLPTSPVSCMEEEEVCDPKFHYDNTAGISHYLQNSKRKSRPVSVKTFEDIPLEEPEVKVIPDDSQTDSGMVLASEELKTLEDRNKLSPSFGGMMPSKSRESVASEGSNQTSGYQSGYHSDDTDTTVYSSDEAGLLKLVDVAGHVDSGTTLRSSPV
The assay is described as follows: VEGFR2 kinase screening assay (33P-ATP FlashPlate). The class given is biochemical. Conditions: 10 μM ATP, rat VEGF-R2 kinase domain, 1 hr at 30° C.

The next assay has as its target T4, HER2 (Homo sapiens, UniProt P04626).
T4 construct: GST (Glutathione-S-Transferase) (N); HIS6 (N); Thrombin cleavage site (N); purchased Proqinase, Freiburg, Germany
The experiment in a line: HER2 kinase screening assay (33P-ATP FlashPlate). The class given is biochemical. Conditions: 10 μM ATP, biotin-poly(GT) 4:1 substrate, 1 hr at 30° C. The procedure: as §1, §2
The HER2 construct consisted of a fusion of GST (Glutathione-S-Transferase), HIS6 Thrombin and the nucleotides encoding amino acids 679 to 1255 of HER-2 (Accession number M11730) (Proqinase, Freiburg, Germany). The assay used 200 ng of the N-terminal biotinylated peptide biotin-poly(GT) 4:1 (HER2) per well.
as §3, §4

SMILES strings stand for the structures.

T1 sequence (P06493 whole entry): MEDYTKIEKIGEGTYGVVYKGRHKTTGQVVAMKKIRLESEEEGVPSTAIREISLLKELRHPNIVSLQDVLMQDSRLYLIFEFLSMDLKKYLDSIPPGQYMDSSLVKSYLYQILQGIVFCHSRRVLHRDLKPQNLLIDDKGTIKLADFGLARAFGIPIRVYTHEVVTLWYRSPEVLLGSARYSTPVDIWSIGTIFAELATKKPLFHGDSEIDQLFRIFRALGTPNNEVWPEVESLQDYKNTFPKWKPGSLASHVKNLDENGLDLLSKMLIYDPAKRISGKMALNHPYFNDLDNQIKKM
T1 sequence (P14635 whole entry partner): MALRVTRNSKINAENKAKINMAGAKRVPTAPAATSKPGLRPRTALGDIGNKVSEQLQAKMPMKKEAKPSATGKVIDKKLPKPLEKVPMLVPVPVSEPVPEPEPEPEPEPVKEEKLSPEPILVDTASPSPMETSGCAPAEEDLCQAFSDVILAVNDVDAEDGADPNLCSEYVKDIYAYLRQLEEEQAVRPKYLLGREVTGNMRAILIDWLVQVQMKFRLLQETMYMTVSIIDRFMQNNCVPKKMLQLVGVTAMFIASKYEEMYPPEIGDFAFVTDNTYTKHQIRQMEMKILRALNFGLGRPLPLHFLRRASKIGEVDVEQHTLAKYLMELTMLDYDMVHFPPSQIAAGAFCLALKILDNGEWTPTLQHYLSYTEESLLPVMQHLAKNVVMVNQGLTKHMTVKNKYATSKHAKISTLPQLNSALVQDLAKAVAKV
T4 sequence (P04626 679-1255): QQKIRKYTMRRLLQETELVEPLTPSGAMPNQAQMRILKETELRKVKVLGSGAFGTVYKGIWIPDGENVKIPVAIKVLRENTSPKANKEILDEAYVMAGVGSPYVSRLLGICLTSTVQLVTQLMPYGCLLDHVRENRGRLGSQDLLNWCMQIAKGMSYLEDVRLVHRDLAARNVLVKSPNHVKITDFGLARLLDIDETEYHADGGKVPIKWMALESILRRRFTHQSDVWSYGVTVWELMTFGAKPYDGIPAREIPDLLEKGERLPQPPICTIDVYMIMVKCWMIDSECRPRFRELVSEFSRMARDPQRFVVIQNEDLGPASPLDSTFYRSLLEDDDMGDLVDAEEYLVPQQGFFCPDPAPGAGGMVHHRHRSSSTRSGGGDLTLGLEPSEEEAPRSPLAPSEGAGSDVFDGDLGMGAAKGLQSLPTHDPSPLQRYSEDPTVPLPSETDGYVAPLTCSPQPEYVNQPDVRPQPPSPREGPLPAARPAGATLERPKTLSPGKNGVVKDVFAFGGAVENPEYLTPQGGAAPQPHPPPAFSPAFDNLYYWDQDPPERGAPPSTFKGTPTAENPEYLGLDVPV

As to `COc1ccc2nc(-c3n[nH]cc3C=Cc3cnccc3C)[nH]c2c1` [Cpd 5, 6-methoxy-2-{4-[2-(4-methyl-pyridin-3-yl)-vinyl]-1H-pyrazol-3-yl}-1H-benzoimidazole], the IC50 against CDK1 was 157 nM; on Aurora-A, 549 nM; with A375 malignant melanoma it was 4300 nM; in the assay on HCT-116 colon carcinoma it was 3190 nM; in assay [1] it was 2760 nM.
On to `COC(=O)c1cncc(C=Cc2c[nH]nc2-c2nc3ccc(OC)cc3[nH]2)c1` [Cpd 9, 5-{2-[3-(6-methoxy-1H-benzoimidazol-2-yl)-1H-pyrazol-4-yl]-vinyl}-nicotinic acid methyl ester], for which the IC50 against CDK1 is 886 nM; against VEGFR2 it was 1280 nM; on Aurora-A, greater than 100000 nM; in the assay on A375 malignant melanoma, 3100 nM; in the assay with HCT-116 colon carcinoma, 3130 nM; in assay [1] it was 4370 nM.
Take `CCNC(=O)c1cncc(C=Cc2c[nH]nc2-c2nc3ccc(OC)cc3[nH]2)c1` [Cpd 11, N-ethyl-5-{2-[3-(6-methoxy-1H-benzoimidazol-2-yl)-1H-pyrazol-4-yl]-vinyl}-nicotinamide]: the IC50 was 111 nM against CDK1; 36600 nM on HER2; 1350 nM against VEGFR2; greater than 100000 nM at Aurora-A; 3620 nM in the assay on A375 malignant melanoma; 2460 nM in the assay on HCT-116 colon carcinoma. In assay [1], this compound yielded an IC50 of 3700 nM.
Regarding `COc1ccc2nc(-c3n[nH]cc3C=Cc3cncc4ccccc34)[nH]c2c1` [Cpd 6, 4-{2-[3-(6-methoxy-1H-benzoimidazol-2-yl)-1H-pyrazol-4-yl]-vinyl}-isoquinoline], the IC50 against CDK1 stood at 148 nM; on VEGFR2 it was 613 nM; in the assay on A375 malignant melanoma it was 2960 nM; with HCT-116 colon carcinoma it was 2680 nM; in assay [1], 2820 nM.
`COc1ccc2nc(-c3n[nH]cc3C=Cc3cccnc3)[nH]c2c1` [Cpd 2, 6-methoxy-2-[4-(2-pyridin-3-yl-vinyl)-1H-pyrazol-3-yl]-1H-benzoimidazole]: the IC50 on CDK1 amounted to 32.8 nM; on VEGFR2, 967 nM; on Aurora-A it was 513 nM; in the assay with A375 malignant melanoma, 2500 nM; with HCT-116 colon carcinoma, 2160 nM; in assay [1], 1800 nM.
Consider `CN1CCN(c2ccc3nc(-c4n[nH]cc4C=Cc4cccnc4)[nH]c3c2)CC1` [Cpd 8, 6-(4-methyl-piperazin-1-yl)-2-[4-(2-pyridin-3-yl-vinyl)-1H-pyrazol-3-yl]-1H-benzoimidazole], for which the IC50 at CDK1 was 29.1 nM; on HER2, 9320 nM; on VEGFR2, 286 nM; on Aurora-A, greater than 10000 nM; in the assay on A375 malignant melanoma, 864 nM; with HCT-116 colon carcinoma, 194 nM. The compound also yielded an IC50 in assay [1] of 464 nM.
For the compound `COc1ccc2nc(-c3n[nH]cc3C=Cc3cncc(C#N)c3)[nH]c2c1` [Cpd 7, 5-{2-[3-(6-methoxy-1H-benzoimidazol-2-yl)-1H-pyrazol-4-yl]-vinyl}-nicotinonitrile], the values for the IC50 on CDK1, against VEGFR2 and against Aurora-A were greater than 1000 nM, 1730 nM and 4190 nM, respectively.
Take `CCNCc1cncc(C=Cc2c[nH]nc2-c2nc3ccc(OC)cc3[nH]2)c1` [Cpd 1, ethyl-(5-{2-[3-(6-methoxy-1H-benzoimidazol-2-yl)-1H-pyrazol-4-yl]-vinyl}-pyridin-3-ylmethyl)-amine]: the IC50 on CDK1 is 4.59 nM; at HER2, 3030 nM; on VEGFR2, 821 nM; against Aurora-A, 588 nM; with A375 malignant melanoma, 553 nM; in the assay with HCT-116 colon carcinoma, 187 nM. Further, the IC50 in assay [1] came out at 615 nM.
Regarding `COc1ccc2nc(-c3n[nH]cc3C=Cc3ccc(N)nc3)[nH]c2c1` [Cpd 3, 5-{2-[3-(6-Methoxy-1H-benzoimidazol-2-yl)-1H-pyrazol-4-yl]-vinyl}-pyridin-2-ylamine], the IC50 on CDK1 was found to be 23 nM; against HER2, 6840 nM; against VEGFR2, 636 nM; against Aurora-A it was 625 nM; in the assay on A375 malignant melanoma, 1030 nM; with HCT-116 colon carcinoma, 1040 nM. Also, the IC50 in assay [1] is 992 nM.
Take `COc1cncc(C=Cc2c[nH]nc2-c2nc3ccc(OC)cc3[nH]2)c1` [Cpd 10, 6-methoxy-2-{4-[2-(5-methoxy-pyridin-3-yl)-vinyl]-1H-pyrazol-3-yl}-1H-benzoimidazole]: the IC50 against CDK1 is 46.6 nM; against HER2 it was 12000 nM; against VEGFR2 it was 653 nM; on Aurora-A, 399 nM; with A375 malignant melanoma, 913 nM; with HCT-116 colon carcinoma, 748 nM. The IC50 in assay [1] amounted to 886 nM.
